In this assay the test system is BT474. The assay can be described thus: Cell viability (CellTiter-Blue, 72 h), phytocannabinoids alone and in combination, BT474 breast cancer cells. It is filed as cell-based. To be noted: for IC50: Homo sapiens; for effect (but only 50% effect): extent of effect reached. As for the experimental part: The cell lines tested in this Example were as follows. Breast cancer: MDA-MB-231; SK-BR3; and BT474. Liver cancer: HepG2.
The phytocannabinoids were tested alone and in various ratioed combinations in media containing final concentrations of 10% and 1% foetal bovine serum at 72 h for the breast and prostate cancer lines and 1% foetal bovine serum for the liver cancer line HepG2.
Each tumour cell line was maintained in vitro in RPMI 1640+10% heat inactivated FBS and 2 mM L-glutamine (growth media) at 37° C. in 5% CO2 and humidified conditions. The cells were harvested, washed, re-suspended into growth medium and counted. The cells were re-suspended into assay media (RPMI 1640+5% heat inactivated FBS+ and 2 mM L-glutamine) at 8×104-2×10^5 cells/ml (dependent upon cell type) and plated into the middle 240 wells of 384 well tissue culture plates (Corning CellBind, black-wall plates) 12.5 μl/well aliquots; 62.5 μl of growth media was aliquoted into the outer wells. There were 4 plates for each cell line. The plates were incubated overnight at 37° C., in 5% humidified CO2.
The phytocannabinoid test compounds were prepared in 100% DMSO vehicle at a stock concentration of 10 mM.
Starting with the 10 mM stock, the compounds were diluted to 125 μM in FBS-free growth media.
These were diluted in FBS-free growth media to 125 μM before serial dilution.
5 volumes of CBD 10 mM stock was added to 1 volume of the other agent (also at 10 mM) and 4 volumes of DMSO. This made a final concentration of 5 mM:1 mM. This was then diluted in FBS-free growth media so the top concentration of CBD would be 125 μM (before serial dilution). Each compound and compound combination stock was serially diluted in FBS-free growth media (containing 1.25% v/v DMSO) from 125 μM to 41.7, 13.89, 4.63, 1.54, 0.514, 0.171, 0.057 and 0.019 μM (1.25× final assay concentrations). Vehicle was prepared at equivalent dilutions in assay media. The top final concentration of compound in the assay was always 100 μM so CBD5:1CBG was 100 μM CBD and 20 μM CBG.
Taxotere SOC was prepared at a stock concentration of 1 mM in 100% DMSO. Taxotere was serially diluted from the stock solution into FBS-free growth media to 12.5 μM, then serially diluted in FBS-free growth media containing 1.25% DMSO to 4.17, 1.39, 0.46, 0.154, 0.051, 0.017, 0.006, 0.002 μM (1.25× final assay concentrations).
This was then serially diluted in FBS-free growth media to 0.417, 0.139, 0.046, 0.0154, 0.0051, 0.0017, 0.0006, 0.0002 μM (1.25× final assay concentrations). This was plated as a positive control for the SKBR3 & BT474 cell lines. 50 μl per well of compound/vehicle dilutions was added to the plates in replicates of 6. Where applicable total volume in the well was made up to 62.5 μl with assay media.
The plates were incubated for 72 h at 37° C. in 5% humidified CO2. To develop the plates, at 72 h, 10 μl of CellTiter-Blue™ reagent was added to each test/blank well. The plates were incubated at 37° C., 5% humidified CO2. Fluorescence was measured using a Flex II Station plate reader (570 nm excitation wavelength, 600 nm emission wavelength, 590 nm cut-off) after 3 h.
The experimental conditions were the same as the experiment above, with the same compound dilutions and volumes for plating but using growth media containing 10% FBS rather than FBS-free media.
The raw data values expressed in relative fluorescent units were normalised to the vehicle for each individual plate and any reduction in fluorescence indicated a decrease in viability.
The data were analysed in GraphPad PRISM using a non-linear sigmoidal plot with variable slope (asymmetric five point linear regression) and where possible an IC50 value for each single compound and combination was generated.
For the calculation, raw data values expressed in relative fluorescent units were normalised to the vehicle for each individual plate (set as 0%) and the reduction in fluorescence calculated as an increase in inhibition of viability.
Background: Alamar Blue is a resazurin reagent that responds to reducing activity.

The mark [1] stands for this setting: BT-474, 72 h, BT474, 1% FBS, 72 h, read-out: IC50 values.
Setting [2] is: BT-474, 72 h, BT474, 10% FBS, 72 h, read-out: IC50 values.
Where [3] appears, read: BT-474, BT474, 1% FBS, Calcusyn median-effect analysis, read-out: Dm (median effect dose).

Each structure is given as a SMILES string. Read-outs that look alike come from different tables or passages of the source. Where only a bound is given, the exact number is not on record here.

With `CCCCCc1cc(O)c(C/C=C(\C)CCC=C(C)C)c(O)c1` [CBG, Cannabigerol], the IC50 is, setting by setting: under setting [1], 7.9 µM; under setting [2], 37 µM; under setting [3], 14.8 µM.

As for `C=C(C)[C@@H]1CCC(C)=C[C@H]1c1c(O)cc(CCCCC)c(C(=O)O)c1O` [CBDA, Cannabidiolic acid], the IC50 under setting [1] was determined as 21.8 µM, the IC50 under setting [2] was more than 100 µM and the IC50 under setting [3] is 43.3 µM.

Turning to `C=C(C)[C@@H]1CCC(C)=C[C@H]1c1c(O)cc(CCCCC)cc1O` [CBD, Cannabidiol], the IC50 by setting is: under setting [1], 8 µM; under setting [2], 28 µM; under setting [3], 16.9 µM.

Turning to `CCCCCc1cc(O)c(C/C=C(\C)CCC=C(C)C)c(O)c1C(=O)O` [CBGA, Cannabigerolic acid], the IC50 reads like this: under setting [1], 24.8 µM; under setting [2], approximately 100 µM; under setting [3], 27.9 µM.

`CC(=O)O[C@@]12CO[C@@H]1C[C@H](O)[C@@]1(C)C(=O)[C@H](O)C3=C(C)[C@@H](OC(=O)[C@H](O)[C@@H](NC(=O)OC(C)(C)C)c4ccccc4)C[C@@](O)([C@@H](OC(=O)c4ccccc4)[C@H]21)C3(C)C` [Taxotere, Docetaxel, reference compound]: the “effect (but only 50% effect)” value by setting is: (BT474, 1% FBS) “only 50%”; (BT474, 10% FBS) 50% effect). Also, the IC50 is less than 0.001 µM under setting [1] and less than 0.001 µM under setting [2].

As to `CCCc1cc(O)c2c(c1)OC(C)(C)[C@@H]1CCC(C)=C[C@@H]21` [THCV, Tetrahydrocannabivarin], the IC50 was 13.3 µM under setting [1], 31 µM under setting [2] and 20.3 µM under setting [3].

These data come from patent US9962341B2, “Active pharmaceutical ingredient (API) comprising cannabinoids for use in the treatment of cancer” (GW Pharma Limited, priority 2014, dated 2018).
